Experimental data: publication PMC4674085, “Towards Prebiotic Catalytic Amyloids Using High Throughput Screening” (PLoS ONE, 2015)

How the values were obtained:
[1] = X-ray fiber diffraction of aligned fibrils; type: physicochemical; settings: washed pellets dried between glass capillaries, room temperature
Procedure: The samples were centrifuged, the pellet resuspended (ultrapure water or 10 mM NaOAc pH 4) and centrifuged again. The washed pellets were resuspended in a minimal amount of water and 4 μl of the suspension were pipetted between the melted ends of two glass capillaries, which were then left to dry overnight in a sealed petri dish. The dried material was placed in an X-ray beam (Rigaku MicroMax-007HF) at room temperature for a 20 min exposure and diffraction data was collected on a Mar345 image plate detector.
Table A and associated data: Biophysical characterization of library […]
1. Fold increase in ThT ﬂuorescence over background.
2. CD spectra classiﬁed as follows: (β+) has minimum near 217 nm, (β++) has minimum near 217 nm and a maximum near 197 nm, (−) signal too weak to interpret, (?) spectra not typical of any secondary […]
3. The peak position in amide I region is given in cm−1. […]
within the typical range of stretching frequencies forβ-structure (between dashed lines at 1638 cm−1 and […]
4. (+) ﬁbrils present or (−) absent in EM micrographs.
5. Diﬀraction images recorded for the aligned ﬁbrils of 5 diﬀerent peptides (see materials and methods).

[2] = Plate reader 4NPA hydrolysis kinetics of purified peptide amyloids at pH 7.3; type: biochemical; settings: 4NPA hydrolysis, pH 7.3 HEPES with zinc(II), 20 μM purified peptide; for k cat/K M: 0.1-1.0 mM 4NPA, 1% CH3CN, A400, Michaelis-Menten fit, triplicate (duplicate for 8, 27, 34, 35); for k cat/K M / k cat: per monomer peptide; for K M / k cat: Michaelis-Menten fit
Procedure: (§1) The reaction buffer consisted of the same buffer as the fibrillization buffer without ZnCl2 and with 1.33 mM 4NPA prepared from a 100 mM stock in CH3CN. The samples of the amyloid library were mixed 1:3 with the reaction buffer yielding 40 μM peptide and, when present 250 μM zinc(II). The absorbance measurements were performed in a BMG Pherastar platereader with a 400 nm band-pass filter (10 nm bandwidth) in 96-well Nunclon Delta surface plates or 384-well Greiner Bio-One non-bind black μclear plates.
The kinetics assays performed on the purified peptides were prepared similarly except that the peptide concentration was 20 μM in the reaction. Furthermore, the various substrate concentrations and replicate samples were randomly distributed over the plate to minimize systematic errors. Various 4NPA concentrations (i.e. 0.1 mM, 0.2 mM, 0.4 mM, 0.6 mM, 1.0 mM) were added from a 100 times stock so that the final CH3CN concentration was always 1%. The linear part of the hydrolysis activity was fit with an extinction coefficient of ε = 9700 M^-1cm^-1 and corrected for the background reaction rate of buffer alone (v bg = 5.0 × 10^-6 Ms^-1) to obtain the initial reaction rate v 0. The average of the initial reaction rates at each substrate concentration were then fit to the Michaelis-Menten type kinetics to obtain k cat, K M and k cat/K M always calculated per monomer peptide. The background reaction rate was obtained similarly using 5 replicates.

[3] = Activity screen of the amyloid library, 4NPA hydrolysis in plate reader (Fig 1); type: biochemical; settings: for hydrolytic activity in the screen: condition 2: pH 7.3 with ZnCl2, 40 μM crude peptide, 250 μM zinc(II), A400
Procedure: The most common assay for hydrolytic activity in enzymes is with the chromogenic substrate p-nitrophenyl acetate (4NPA). Therefore, 4NPA was chosen permitting a direct comparison of the hits from the screen with natural enzymes. Using an absorbance plate reader, we screened the activity of the amyloid library at a peptide concentration of 40 μM, fibrillized at pH 4 or 7.3 and in the presence of divalent cations (250 μM Co^2+, Cu^2+, Mg^2+, Mn^2+, Ni^2+, or Zn^2+) (Fig 1). […] Imidazole is known to catalyze 4NPA hydrolysis under these conditions via an acyl intermediate and it was used as a standard to compare the measured activity of the peptides from plate to plate.
Fig 1 Activity screens of peptide amyloids in various conditions. The hydrolysis rates of 4NPA measured for each of the peptide amyloids (in columns) are shown as a ratio to the negative control (buffer) with color-codes as indicated at the bottom of the Figure. A color code from black (rate ratio of 1.0) to light blue (1.5) to red (19) is used. Activities below the negative control are indicated with smaller disks and color-coded from light grey to black. Occasionally observed negative reaction rates are indicated by small blue disks. The peptide amyloids were tested in a total of 46 conditions of which 19 conditions are shown here (in rows). The peptides are numbered according to Table 2, including a short nomenclature highlighting only the variable residues (e.g. the peptide Ac-YVDVHVSV-CONH2 is abbreviated DHS). The conditions are sorted top-down with the highest observed activity at the top. A detailed list of the conditions tested are shown in Table B in S1 File, while below a compressed introduction to the different conditions is listed: (2) pH 7.3 with ZnCl2 (control for 33 without heating), (33) condition 2 and heated to 95°C for 1 h prior to screening, (46) condition 2 and screened in 50% DMSO, (39) condition 2 and screened with 4.75 M NaCl, (40) condition 2 and screened with 0.2 M MgCl2, (45) condition 2 and screened in 90% EtOH, (38) condition 2 and screened with 0.2 M NaCl, (30) pH 7.3 with ZnCl2 and 1 M Na2SO4, (35) pH 7.3 and screened in 4.75 M NaCl, (34) pH 7.3 and screened in 0.5 M NaCl, (37) pH 7.3 and screened in 2 M MgCl2, (27) pH 7.3 with ZnCl2 and 0.2 M MgCl2, (6) pH 7.3 with NiCl2, (4) pH 7.3 with CoCl2, (1) pH 7.3 without other additives, (41) condition 2 and screened in 2 M MgCl2, (5) pH 7.3 with CuCl2, (36) pH 7.3 and screened in 0.2 M MgCl2 and (8) pH 4.0 without other additives.
as §1
Table B: Amyloid growth and measurement conditions.
Growth = Measurement1 Growth⁄= Measurement1
Divalent2 pH3 T (◦C) Additive Divalent pH T (◦C) Additive
1. The conditions for ﬁbrillization and 4NPA assay are the same for 1-32 except that the 4NPA assay was always at 30 ◦C and the divalent concentration was one-fourth as high. For condition 33, the sample was heated to 95 ◦C for 1 hour prior to the 4NPA assay and for 34-46 the samples were ﬁbrillized in condition 1 or 2 and then transferred to the new conditions with additive just for the 4NPA assay.
2. Divalent concentration is 1 mM for growth and 250µM for 4NPA assay.
3. Grown and measured in 50 mM buﬀer: HEPES at pH 7.3, NaOAc at pH 4.0, or phthalate at pH 2.2.

[4] = Aggregation at pH 4 from soluble material left after 100,000 g centrifugation; type: physicochemical; settings: 40 μM purified peptide, pH 4, soluble material in supernatant of 100,000 g centrifugation

Row | Substance | X-ray diffraction of aligned fibrils [1] | k cat/K M [2] | K M [2] | k cat [2] | hydrolytic activity in the screen [3] | activity in the screen under extreme conditions ([3]; high organic solvent content (50% DMSO, 90% EtOH) or high salt (4.75 M NaCl, 1 M Na2SO4), with ZnCl2) | relative activity in the screen in 50% DMSO ([3]; condition 46: fibrillized at pH 7.3 with ZnCl2, screened in 50% DMSO, also activity above positive control (200 μM imidazole)) | aggregation behaviour at pH 4 [4]
1 | Ac-YVAVHVHV-NH2 [Peptide 27, Ac-YVAVHVHV-CONH2] | cross-β | 4.26 ± 0.13 M⁻¹ s⁻¹ | 7200 ± 2100 µM | 3.05±0.80 10^-2s^-1 | highest activity | often significant |  | 
2 | Ac-YVDVHVDV-NH2 [Peptide 25, Ac-YVDVHVDV-CONH2] |  |  |  |  |  |  | increased relative activity compared to the same condition without DMSO | 
3 | Ac-YVHVHVDV-NH2 [Peptide 21, Ac-YVHVHVDV-CONH2] |  | 0.473 ± 0.046 M⁻¹ s⁻¹ | 1230 ± 320 µM | 0.059±0.010 10^-2s^-1 |  |  |  | remained soluble for several days
4 | Ac-YVHVHVHV-NH2 [Peptide 8, Ac-YVHVHVHV-CONH2] | cross-β | 2.288 ± 0.077 M⁻¹ s⁻¹ | 2390 ± 320 µM | 0.547±0.056 10^-2s^-1 | highest activity |  |  | 
5 | Ac-YVHVHVSV-NH2 [Peptide 11, Ac-YVHVHVSV-CONH2] |  | 6.29 ± 0.52 M⁻¹ s⁻¹ | 870 ± 150 µM | 0.514±0.051 10^-2s^-1 | highest activity |  |  | 
6 | Ac-YVSVHVHV-NH2 [Peptide 9, Ac-YVSVHVHV-CONH2] |  | 1.461 ± 0.094 M⁻¹ s⁻¹ | 3710 ± 390 µM | 0.544±0.048 10^-2s^-1 | highest activity |  |  | 
